One experiment has as its system skin of mice. The experiment can be described thus: Intradermal naked luciferase mRNA delivery with PCI, bio-luminescence imaging (IVIS) of injection sites. It counts as in vivo. Particulars: for effect on mRNA delivery (fold increase in luminescence vs mRNA only): Example 1C, 2 μg unmodified mRNA L-6307, 0.003 μg TPCS2a. How it is done: Firefly luciferase mRNA (1921 nucleotides in length; L-6107—with modified bases 5-methylcytidine (5meC) and pseudo-uridine (ψ); L-6307—unmodified mRNA; L-7202—with modified base 5-methoxyuridine (5moU), and with the TriLink CleanCap™ modification as the capping structure, purchased from TriLink Biotechnologies, San Diego, USA) and TPCS2a (Amphinex®, PCI Biotech AS, Norway) were mixed in a volume of 20 μl PBS and the mixture was injected into the skin of mice at time 0. Different doses were used in different experiments, and in control samples no TPCS2a was used. Injections were performed in 4 sites (A-D) per mouse (see FIG. 1 and diagram and table below), and the injection sites were illuminated in general 60 min after mRNA/TPCS2a injection. With this set-up the two sites in each animal not receiving TPCS2a act as controls internal to each animal. This is useful for being able to correct for possible differences between animals e.g. in the injection and distribution of luciferin prior to the bio-luminescence imaging.
Injection sites were illuminated with blue light (wavelength between 400 and 540 nm with a peak at around 435 nm) from the LumiSource illumination device.
4-6 or 20-24 hours after illumination luciferase activity at the injection sites was analysed by bio-luminescence imaging in the IVIS instrument (IVIS Spectrum, model 124375R from PerkinElmer). Pictures were taken 20 min after luciferin injection, and bio-luminescence in a defined region-of-interest (ROI) around each injection site was quantified. The procedure for IVIS imaging was as follows: i) The mice were given an intraperitoneal injection of 3 mg D-Luciferin (200 μl of 15 mg/ml stock).
ii) After approximately 10 min, the mice were anaesthetized by a subcutaneous injection of Zoletil (10-15 mg/kg xylasin, 5-10 mg/kg butorphanol and 15-20 mg/kg Zoletil (containing zolazepam and tiletamine)).
iii) 20 min after D-luciferin injection, mice were placed in the IVIS instrument and pictures were taken with automatic exposure of Luminescence (Andor camera IS0825R4582; iKon Living Image version: 4.5.2.18424. Binning factor: 8; Excitation filter: Block; Emission filter: Open; f Number: 1)
iv) The bio-luminescence in ROIs covering each injection site was measured to quantify luciferase expression. The detailed set-up of a typical experiment (Example 1) can be found in Table 1.
Animals were injected by mRNA and TPCS2a as described under Methods and treated as described in Table 1 with the sites shown in FIG. 8.
3 μg mRNA and different amounts of TPCS2a (ranging from 0.0003 μg to 10 μg) were mixed and injected into the skin of mice as described under Methods. 60 min after the injections the mice were illuminated for 6 (in general) or 3 min (in one case) with blue light from the LumiSource illumination device. The animals were injected with luciferin and imaged in the IVIS instrument as described under Methods. The luminescence in defined regions of interest round the injection sites was assessed in the IVIS instrument. For each animal the luminescence at the sites receiving mRNA+TPCS2a was compared to the luminescence at the sites receiving mRNA only, and the fold increase (FI) in luminescence at the TPCS2a injected sites in each animal was calculated by the formula FI=luminescencemRNA+TPCS2a/luminescencemRNA only. […]
Lipofectamine is a very efficient transfection agent commonly used for delivery of mRNA and other nucleic acids; and it has also been used for mRNA delivery in vivo (Zangi et al., 2013, supra). However several type of toxic reactions have been observed with in vivo use of lipofectamine, limiting the possibilities for clinical use of this transfection agent. […]

A further experiment deals with TC-1 tumours. Description: Intratumoural luciferase mRNA delivery with PCI (red light 652 nm), luciferase enzymatic assay on tumour homogenates. Particulars: Example 2. It counts as in vivo, mice. How it is done:
An experiment was performed to study in vivo naked mRNA delivery to TC-1 tumours (model for HPV-induced tumours) in mice.
In these experiments the TC-1 tumour model for HPV-induced cancer was employed. mRNA delivery was assessed by performing a luciferase enzymatic assay on homogenates from tumours harvested the day after illumination. Red light laser light illumination with a wavelength of 652 nm was used. The experiment was performed as follows: • Luciferase mRNA (L-7202 CleanCap™ FLuc mRNA (5moU)) from TriLink, 3 μg per injection) was mixed with TPCS2a and injected into the tumours in an injection volume of 20 μl. • 60 min after mRNA/TPCS2a injection the tumours were illuminated with different doses of red laser light (at 652 nm) for 12.5-500 seconds. • The day after illumination, all tumours were removed and frozen for later enzymatic assay for luciferase (Luciferase Assay System, Promega, Cat #E1500). • The protein content in the samples was measured with the RC DC Protein Assay kit (BioRad) assay, and the relative amounts of active luciferase in each sample was calculated as Relative Luminescence Units (RLU: Arbitrary units) per mg of protein.

Another experiment relates to MC-38 tumours. Description: Intratumoural luciferase mRNA delivery with PCI (blue light), luciferase enzymatic assay on tumour homogenates. It counts as in vivo, mice. Particulars: Example 3, 6 min blue light. How it is done:
An experiment was performed to study in vivo naked mRNA delivery to colon adenocarcinoma tumours (MC-38 tumours) in mice.
The experiment was performed with Luciferase-encoding modified mRNA, and the effect was analysed by an enzymatic luciferase assay on tumour extracts, with tumours harvested 20 hours after illumination. Each animal had two tumours (A and B) that were injected and analysed separately.
TriLink modified luciferase mRNA (T14-GU03A), 3 μg was used per injection.
Female mice of the strain C57BL/6 (Charles River) were be used. Animal identification and conditions of housing, acclimatisation, environment, diet and water was in accordance with the current Standard Operating Procedures at the animal facilities at Oslo University Hospital—The Radium Hospital.
The animals were inoculated with 500 000 MC-38 cells per tumour, 2 tumours per animal. The size of the tumours on mRNA injection was 60-150 mm^3. Animals were randomized by tumour volume, animals with tumour ulcers were excluded. mRNA was mixed with TPCS2a and the mixture (25 μl) was injected into the tumours at time 0. The pure (naked) mRNA was injected at the same time point.
The injections were performed with gas anesthesia (Sevoflurane). The aim of the injection was to deposit a solution in the centre of the outer third of the tumour, avoiding the central core of the tumour. Insulin syringes were used to deliver the 25 μl of treatment.
The tumours in the PCI groups were illuminated (blue light from LumiSource) 60 min after mRNA/TPCS2a injection according to Table 5. The day after mRNA administration (i.e. around 20 hours after illumination) animals were killed and all tumours were removed and frozen for later homogenization and enzymatic assay for luciferase (Luciferase Assay System, Promega, Cat #E1500). After homogenization the amount of protein in the tumour extract was determined using the RC-DC Protein Assay (Bio-Rad Hercules, California, USA) and the luciferase enzymatic activity per mg tumour was calculated.

For the substance “tetraphenyl chlorin disulfonate [TPCS2a]”, in the experiment with skin of mice (Example 1A, 12 sites each, 2 μg mRNA + 0.003 μg TPCS2a intradermal, 6 min blue light), the “enhancement of mRNA delivery by PCI, mean of all animals versus mRNA only” value is recorded as “about 3 times”. In addition, in the experiment on skin of mice (Example 1A, animal 6, 2 μg luciferase mRNA L-6107 + 0.003 μg TPCS2a intradermal, 6 min blue light, imaged 4 h after illumination), the “mean bio-luminescence for the PCI treated sites versus the mRNA only sites” value is “more than 5 times”. Moreover, the “effect on mRNA delivery, 6 versus 3 min illumination” value with skin of mice (Example 1B, 3 μg mRNA, 0.003 μg TPCS2a, 6 and 3 min blue light) is on record as “comparable enhancement of mRNA delivery”. For the same substance, the “effect on mRNA delivery (luciferase expression, fold increase vs mRNA only)” value in the experiment with skin of mice (Example 1B, 3 μg mRNA, TPCS2a dose of 0.0003 μg, blue light) was “improved mRNA delivery”; in the experiment on skin of mice (Example 1B, 3 μg mRNA, TPCS2a doses above 0.3 μg (PCI10, PCI3, PCI1), 6 min blue light), “strongly detrimental effect on mRNA delivery”; in the experiment with skin of mice (Example 1B, 3 μg mRNA, TPCS2a doses of 0.01 μg and below, 6 min blue light), “significant enhancement of mRNA delivery”; with skin of mice (Example 1B, 3 μg mRNA, TPCS2a doses of 0.3 to 0.03 μg, 6 min blue light), “did not alter luciferase expression significantly”. Further, the “effect on mRNA delivery (fold increase in luminescence vs mRNA only)” value in the experiment with skin of mice (0.5 min blue light) and in the experiment on skin of mice (4 min blue light) was “enhanced mRNA delivery” throughout. Also, in the experiment on skin of mice (Example 1D, 2 μg mRNA L-7202 intradermal, 0.003 μg TPCS2a, 6 min blue light, imaged 4 h after illumination, comparator 6 μl lipofectamine), the “improvement of mRNA translation over what was achieved with lipofectamine” value is roughly 4 times. The “optimum illumination dose for PCI-enhanced mRNA delivery” value with TC-1 tumours (3 μg mRNA + 0.1 μg TPCS2a, red light 652 nm) is listed as “around 2 J/cm^2”. In addition, in the experiment on TC-1 tumours (3 μg mRNA + 0.1 μg TPCS2a, without illuminating the tumours), the “effect on mRNA delivery versus mRNA alone (RLU/mg protein)” value is recorded as “did not seem to enhance mRNA delivery significantly”. Further, in the experiment with TC-1 tumours (3 μg mRNA L-7202 + 0.1 μg TPCS2a intratumoural, red light 0.1 to 4 J/cm^2, tumours harvested day after illumination), the “effect on mRNA delivery and translation (RLU/mg protein)” value is “strong enhancement of mRNA delivery and translation”. Also, in the experiment with MC-38 tumours (3 μg mRNA + 0.001-0.01 μg TPCS2a intratumoural, harvested 20 h after illumination), the “effect on luciferase mRNA delivery (luciferase enzymatic activity in tumour homogenates, single tumours)” value is “substantially enhanced luciferase mRNA delivery”. Also, the “PCI-induced improvement in mRNA delivery compared to mRNA without PCI (group means)” value with MC-38 tumours (0.003/6 min group: 3 μg mRNA + 0.003 μg TPCS2a) is “about 3 times”; in the experiment with MC-38 tumours (0.01/6 min group: 3 μg mRNA + 0.01 μg TPCS2a) it was “about 10 times”.

Values taken from US12263182B2, “Method of introducing an mRNA molecule into a cell” (PCI Biotech AS, priority 2018, dated 2025).
